Experimental data published in patent publication US10647713B2 (Nimbus Lakshmi, Inc., priority 2016, dated 2020).

These compounds were tested against human TYK2 (JH2domain-pseudokinase) (Homo sapiens (Human), UniProt P29597) (assay: TYK2 JH2 Domain Binding Assay (KINOMEscan, DiscoveRx)). Details: 11-point dilution, duplicate.
Outline: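 Kd from duplicate 11-point 3-fold dilutions starting at 30,000 nM, fitted by Hill equation with slope fixed at −1. Compounds (final 0.9% DMSO) displace DNA-tagged HEK293-expressed TYK2 JH2 fusion (<0.1 nM) from ligand-coated beads over 1 h at room temperature; eluted kinase read by qPCR.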

Chain of human TYK2 (JH2domain-pseudokinase) (P29597 556-888): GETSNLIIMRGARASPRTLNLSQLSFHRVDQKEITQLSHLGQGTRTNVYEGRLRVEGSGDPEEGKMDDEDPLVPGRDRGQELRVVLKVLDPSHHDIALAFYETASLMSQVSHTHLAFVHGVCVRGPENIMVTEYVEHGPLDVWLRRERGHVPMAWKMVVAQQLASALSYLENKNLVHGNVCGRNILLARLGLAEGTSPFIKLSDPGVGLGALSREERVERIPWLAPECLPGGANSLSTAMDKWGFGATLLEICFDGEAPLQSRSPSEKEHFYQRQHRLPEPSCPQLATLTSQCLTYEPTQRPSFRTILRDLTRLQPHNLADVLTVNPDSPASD

First: COc1c(Nc2cc(NC(=O)C3CC3)nc3[nH]c(C(F)F)nc23)cccc1C(=O)O [I-140, 3-((5-(cyclopropanecarboxamido)-2-(difluoromethyl)-3H-imidazo[4,5-b]pyridin-7-yl)amino)-2-methoxybenzoic acid]
Second: COc1c(Nc2cc(NC(=O)C3CC3)nc3[nH]c(C)nc23)cccc1C(=O)O [I-141, 3-((5-(cyclopropanecarboxamido)-2-methyl-3H-imidazo[4,5-b]pyridin-7-yl)amino)-2-methoxybenzoic acid]
The Kd of the first is lower: 1 to 10 nM for the first, > 10 nM for the second. The first binds more tightly here.

COc1cc(-c2cncn2C)ccc1Nc1cc(NC(=O)C2CC2)nc2[nH]c(C(F)F)nc12 [I-142, N-(2-(difluoromethyl)-7-((2-methoxy-4-(1-methyl-1H-imidazol-5-yl)phenyl)amino)-3H-imidazo[4,5-b]pyridin-5-yl)cyclopropanecarboxamide] and COc1cc(-c2cncn2C)ccc1Nc1cc(NC(=O)C2CC2)nc2[nH]c(C)nc12 [I-151, N-(7-((2-methoxy-4-(1-methyl-1H-imidazol-5-yl)phenyl)amino)-2-methyl-3H-imidazo[4,5-b]pyridin-5-yl)cyclopropanecarboxamide] fall in the same range of Kd: 1 to 10 nM for the first, 1 to 10 nM for the second.

COc1cc(-c2cncn2C)ccc1Nc1cc(Nc2cccc(C#N)n2)nc2[nH]c(C(F)F)nc12 [I-143, 6-((2-(difluoromethyl)-7-((2-methoxy-4-(1-methyl-1H-imidazol-5-yl)phenyl)amino)-3H-imidazo[4,5-b]pyridin-5-yl)amino)picolinonitril] and COc1cc(-c2cncn2C)ccc1Nc1cc(Nc2cccc(C#N)n2)nc2[nH]c(C)nc12 [I-160, 6-((7-((2-methoxy-4-(1-methyl-1H-imidazol-5-yl)phenyl)amino)-2-methyl-3H-imidazo[4,5-b]pyridin-5-yl)amino)picolinonitrile] fall in the same range of Kd: 1 to 10 nM for the first, 1 to 10 nM for the second.

Compared with COc1cc(-c2cncn2C)ccc1Nc1cc(Nc2cnc(C)c(C)n2)nc2[nH]c(C(F)F)nc12 [I-144, 2-(difluoromethyl)-N5-(5,6-dimethylpyrazin-2-yl)-N7-(2-methoxy-4-(1-methyl-1H-imidazol-5-yl)phenyl)-3H-imidazo[4,5-b]pyridine-5,7-diamine], COc1cc(-c2cncn2C)ccc1Nc1cc(Nc2cnc(C)c(C)n2)nc2[nH]c(C)nc12 [I-152, N5-(5,6-dimethylpyrazin-2-yl)-N7-(2-methoxy-4-(1-methyl-1H-imidazol-5-yl)phenyl)-2-methyl-3H-imidazo[4,5-b]pyridine-5,7-diamine] is lower in Kd: > 10 nM for the first, 1 to 10 nM for the second.

Compared with Cc1cnn(-c2ccc(Nc3cc(NC(=O)C4CC4)nc4[nH]c(C)nc34)c(N(C)S(C)(=O)=O)c2)c1 [I-145, N-(2-methyl-7-((4-(4-methyl-1H-pyrazol-1-yl)-2-(N-methylmethylsulfonamido)phenyl)amino)-3H-imidazo[4,5-b]pyridin-5-yl)cyclopropanecarboxamide], Cc1nc2c(Nc3ccc(-c4cncn4C)cc3N(C)S(C)(=O)=O)cc(NC(=O)C3CC3)nc2[nH]1 [I-153, N-(2-methyl-7-((4-(1-methyl-1H-imidazol-5-yl)-2-(N-methylmethylsulfonamido)phenyl)amino)-3H-imidazo[4,5-b]pyridin-5-yl)cyclopropanecarboxamide] is lower in Kd: 0.5 to 1 nM for the first, 0.1 to 0.5 nM for the second. The second binds more tightly here.

COc1c(Nc2cc(NC(=O)C3CC3)nc3[nH]c(C(F)F)nc23)cccc1-c1c(C)nnn1C [I-146, N-(2-(difluoromethyl)-7-((3-(1,4-dimethyl-1H-1,2,3-triazol-5-yl)-2-methoxyphenyl)amino)-3H-imidazo[4,5-b]pyridin-5-yl)cyclopropanecarboxamide] and COc1c(Nc2cc(NC(=O)C3CC3)nc3[nH]c(C(F)F)nc23)cccc1-c1nnn(C)c1C [I-155, N-(2-(difluoromethyl)-7-((3-(1,5-dimethyl-1H-1,2,3-triazol-4-yl)-2-methoxyphenyl)amino)-3H-imidazo[4,5-b]pyridin-5-yl)cyclopropanecarboxamide] fall in the same range of Kd: 1 to 10 nM for the first, 1 to 10 nM for the second.

Compared with CN(c1cc(-c2cncn2C)ccc1Nc1cc(NC(=O)C2CC2)nc2[nH]c(C(F)F)nc12)S(C)(=O)=O [I-147, N-(2-(difluoromethyl)-7-((4-(1-methyl-1H-imidazol-5-yl)-2-(N-methylmethylsulfonamido)phenyl)amino)-3H-imidazo[4,5-b]pyridin-5-yl)cyclopropanecarboxamide], Cc1nc(-c2ccc(Nc3cc(NC(=O)C4CC4)nc4[nH]c(C(F)F)nc34)c(N(C)S(C)(=O)=O)c2)n(C)n1 [I-164, N-(2-(difluoromethyl)-7-((4-(1,3-dimethyl-1H-1,2,4-triazol-5-yl)-2-(N-methylmethylsulfonamido)phenyl)amino)-3H-imidazo[4,5-b]pyridin-5-yl)cyclopropanecarboxamide] is higher in Kd: < 0.1 nM for the first, 0.1 to 0.5 nM for the second. The first binds more tightly here.

Cn1ccc(-c2ccc(Nc3cc(NC(=O)C4CC4)nc4[nH]c(C(F)F)nc34)c(S(C)(=O)=O)c2)n1 [I-148, N-(2-(difluoromethyl)-7-((4-(1-methyl-1H-pyrazol-3-yl)-2-(methylsulfonyl)phenyl)amino)-3H-imidazo[4,5-b]pyridin-5-yl)cyclopropanecarboxamide] and CS(=O)(=O)c1ccccc1Nc1cc(NC(=O)C2CC2)nc2[nH]c(C(F)F)nc12 [I-159] fall in the same range of Kd: 0.1 to 0.5 nM for the first, 0.1 to 0.5 nM for the second.

COc1c(Nc2cc(NC(=O)C3CC3)nc3[nH]c(C)nc23)cccc1-n1nc(C)nc1C [I-149, N-(7-((3-(3,5-dimethyl-1H-1,2,4-triazol-1-yl)-2-methoxyphenyl)amino)-2-methyl-3H-imidazo[4,5-b]pyridin-5-yl)cyclopropanecarboxamide] and COc1c(Nc2cc(NC(=O)C3CC3)nc3[nH]c(C)nc23)cccc1-n1ncnc1C [I-162, N-(7-((2-methoxy-3-(5-methyl-1H-1,2,4-triazol-1-yl)phenyl)amino)-2-methyl-3H-imidazo[4,5-b]pyridin-5-yl)cyclopropanecarboxamide] cannot be ordered by Kd: > 10 nM for the first, > 10 nM for the second.

Compared with COCc1ccc(Nc2cc(NC(=O)C3CC3)nc3[nH]c(C)nc23)c(N(C)S(C)(=O)=O)c1 [I-150, N-(7-((4-(methoxymethyl)-2-(N-methylmethylsulfonamido)phenyl)amino)-2-methyl-3H-imidazo[4,5-b]pyridin-5-yl)cyclopropanecarboxamide], Cc1nc(-c2ccc(Nc3cc(NC(=O)C4CC4)nc4[nH]c(C)nc34)c(N(C)S(C)(=O)=O)c2)n(C)n1 [I-165, N-(7-((4-(1,3-dimethyl-1H-1,2,4-triazol-5-yl)-2-(N-methylmethylsulfonamido)phenyl)amino)-2-methyl-3H-imidazo[4,5-b]pyridin-5-yl)cyclopropanecarboxamide] is higher in Kd: 0.1 to 0.5 nM for the first, > 10 nM for the second.

Cc1ncc(Nc2cc(Nc3ccc(-c4cncn4C)cc3N(C)S(C)(=O)=O)c3nc(C(F)F)[nH]c3n2)nc1C [I-154, N-(2-((2-(difluoromethyl)-5-((5,6-dimethylpyrazin-2-yl)amino)-3H-imidazo[4,5-b]pyridin-7-yl)amino)-5-(1-methyl-1H-imidazol-5-yl)phenyl)-N-methylmethanesulfonamide] and Cc1nc(-c2ccc(Nc3cc(Nc4cnc(C)c(C)n4)nc4[nH]c(C(F)F)nc34)c(N(C)S(C)(=O)=O)c2)n(C)n1 [I-166, N-(2-((2-(difluoromethyl)-5-((5,6-dimethylpyrazin-2-yl)amino)-3H-imidazo[4,5-b]pyridin-7-yl)amino)-5-(1,3-dimethyl-1H-1,2,4-triazol-5-yl)phenyl)-N-methyl-methanesulfonamide] fall in the same range of Kd: 0.1 to 0.5 nM for the first, 0.1 to 0.5 nM for the second.

Compared with Cc1nc2c(Nc3ccc(-c4cn(C)cn4)cc3N(C)S(C)(=O)=O)cc(NC(=O)C3CC3)nc2[nH]1 [I-156, N-(2-methyl-7-((4-(1-methyl-1H-imidazol-4-yl)-2-(N-methylmethylsulfonamido)phenyl)amino)-3H-imidazo[4,5-b]pyridin-5-yl)cyclopropanecarboxamide], COc1cc(-c2nc(C)nn2C)ccc1Nc1cc(NC(=O)C2CC2)nc2[nH]c(C)nc12 [I-163, N-(7-((4-(1,3-dimethyl-1H-1,2,4-triazol-5-yl)-2-methoxyphenyl)amino)-2-methyl-3H-imidazo[4,5-b]pyridin-5-yl)cyclopropanecarboxamide] is higher in Kd: 0.1 to 0.5 nM for the first, 0.5 to 1 nM for the second. The first binds more tightly here.

First: COc1c(Nc2cc(NC(=O)C3CC3)nc3[nH]c(C)nc23)cccc1-c1c(C)nnn1C [I-157, N-(7-((3-(1,4-dimethyl-1H-1,2,3-triazol-5-yl)-2-methoxyphenyl)amino)-2-methyl-3H-imidazo[4,5-b]pyridin-5-yl)cyclopropanecarboxamide]
Second: COc1c(Nc2cc(NC(=O)C3CC3)nc3[nH]c(C)nc23)cccc1-c1nnn(C)c1C [I-158, N-(7-((3-(1,5-dimethyl-1H-1,2,3-triazol-4-yl)-2-methoxyphenyl)amino)-2-methyl-3H-imidazo[4,5-b]pyridin-5-yl)cyclopropanecarboxamide]
The Kd of the first is lower: 1 to 10 nM for the first, > 10 nM for the second.

Compared with COc1cc(-c2nc(C)nn2C)ccc1Nc1cc(NC(=O)C2CC2)nc2[nH]c(C(F)F)nc12 [I-161, N-(2-(difluoromethyl)-7-((4-(1,3-dimethyl-1H-1,2,4-triazol-5-yl)-2-methoxyphenyl)amino)-3H-imidazo[4,5-b]pyridin-5-yl)cyclopropanecarboxamide], COc1c(Nc2cc(Nc3cc(F)c(N4CC(OC)C4)cn3)nc3[nH]c(C(F)F)nc23)cccc1-c1nc(C)nn1C [I-167, 2-(difluoromethyl)-N7-(3-(1,3-dimethyl-1H-1,2,4-triazol-5-yl)-2-methoxyphenyl)-N5-(4-fluoro-5-(3-methoxyazetidin-1-yl)pyridin-2-yl)-3H-imidazo[4,5-b]pyridine-5,7-diamine] is higher in Kd: 1 to 10 nM for the first, > 10 nM for the second.

In the case of COc1c(Nc2cc(Nc3cc(F)c(N4CC(OC)C4)cn3)nc3[nH]c(C)nc23)cccc1-c1nc(C)nn1C [I-168, N7-(3-(1,3-dimethyl-1H-1,2,4-triazol-5-yl)-2-methoxyphenyl)-N5-(4-fluoro-5-(3-methoxyazetidin-1-yl)pyridin-2-yl)-2-methyl-3H-imidazo[4,5-b]pyridine-5,7-diamine], the Kd is reported as > 10 nM.
